Reference: ChEMBL document CHEMBL1146649, “New highly active taxoids from 9 beta-dihydrobaccatin-9,10-acetals. Part 5” (2004)
Converted amounts (≈) assume the structure as drawn.

Legend:
P388 = assay: Concentration required to inhibit mouse P388 cell line growth by 50% at 72 hr continuous exposure; type: functional; details: P388, 72 h
Mus musculus [1] = assay: Effective dose of intravenously administered compound against B16 melanoma BL6 cells implanted into mice; range is 7.8-17.8; type: functional; details: B16, iv
PC-6 [2] = assay: Concentration required to inhibit human PC-6 cell line growth by 50% at 72 hr continuous exposure; type: functional; details: PC-6, 72 h
PC-12 = assay: Concentration required to inhibit human PC-12 cell line growth by 50% at 72 hr continuous exposure; type: functional; details: PC-12, 72 h
B16 [3] = assay: Effective dose of perorally administered compound against B16 melanoma BL6 cells implanted into mice; type: functional; details: Mus musculus, B16, po
PC-6 [4] = assay: Concentration required to inhibit human PC-6/VCR29-9 cell line growth by 50% at 72 hr exposure; type: functional; details: PC-6, 72 h
PC-6 [5] = assay: Concentration required to inhibit human PC-6/VP1-1 cell line growth by 50% at 72 hr exposure; type: functional; details: PC-6, 72 h
Mus musculus [6] = assay: Maximum rate of body weight loss after peroral administration of 17.8 mg/kg of compound in mice; type: functional; details: route oral
Mus musculus [7] = assay: Maximum rate of body weight loss after peroral administration of 11.9 mg/kg of compound in mice; type: functional; details: route oral
Mus musculus [8] = assay: Effective dose of intravenously administered compound against B16 melanoma BL6 cells implanted into mice; range is 5.3-11.9; type: functional; details: B16, iv
Mus musculus [9] = assay: Antitumor activity of 5.3 mg/kg of intravenously administered compound against B16 melanoma BL6 cells implanted into mice, value reported is percent compared to control; type: functional; details: route intravenous
Mus musculus [10] = assay: Maximum rate of body weight loss after peroral administration of 7.9 mg/kg of compound in mice; type: functional; details: route oral
Mus musculus [11] = assay: Number of mice died at 7.9 mg/kg of intravenous dose of compound among the total 6 mice tested; type: functional
Mus musculus [12] = assay: Number of mice died at 7.9 mg/kg of peroral dose of compound among the total 6 mice tested; type: functional; details: route oral
Mus musculus [13] = assay: Antitumor activity of 7.9 mg/kg of intravenously administered compound against B16 melanoma BL6 cells implanted into mice, value reported is percent compared to control; type: functional; details: route intravenous
Mus musculus [14] = assay: Maximum rate of body weight loss after intravenous administration of 5.3 mg/kg of compound in mice; type: functional
Mus musculus [15] = assay: Number of mice died at 11.9 mg/kg of peroral dose, among the total 6 mice tested; type: functional; details: route oral
Mus musculus [16] = assay: Number of mice died at 5.3 mg/kg of intravenous dose of compound among the total 6 mice tested; type: functional
Mus musculus [17] = assay: Number of mice died at 17.8 mg/kg of peroral dose among the total 6 mice tested; type: functional; details: route oral
B16 [18] = assay: Antitumor activity of 11.9 mg/kg of intravenously administered compound against B16 melanoma BL6 cells implanted into mice, value reported is percent compared to control; type: functional, Mus musculus; details: route intravenous
Mus musculus [19] = assay: Maximum rate of body weight loss after intravenous administration of 7.9 mg/kg of compound in mice; type: functional
Mus musculus [20] = assay: Number of mice died at 5.3 mg/kg of peroral dose of compound among the total 6 mice tested; type: functional; details: route oral
B16 [21] = assay: Antitumor activity of 11.9 mg/kg of perorally administered compound against B16 melanoma BL6 cells implanted into mice, value reported is percent compared to control; type: functional, Mus musculus; details: route oral
Mus musculus [22] = assay: Antitumor activity of 7.9 mg/kg of perorally administered compound against B16 melanoma BL6 cells implanted into mice, value reported is percent compared to control; type: functional; details: route oral
Mus musculus [23] = assay: Maximum rate of body weight loss after intravenous administration of 11.9 mg/kg of compound in mice; type: functional
Mus musculus [24] = assay: Number of mice died at 11.9 mg/kg of intravenous dose, among the total 6 mice tested; type: functional
Mus musculus [25] = assay: Maximum rate of body weight loss after peroral administration of 5.3 mg/kg of compound in mice; type: functional; details: route oral
Mus musculus [26] = assay: Antitumor activity of 5.3 mg/kg of perorally administered compound against B16 melanoma BL6 cells implanted into mice, value reported is percent compared to control; type: functional; details: route oral
Mus musculus [27] = assay: Effective dose of perorally administered compound against B16 melanoma BL6 cells implanted into mice; range is 7.9-11.0; type: functional; details: B16, po
Mus musculus [28] = assay: Number of mice died at 17.8 mg/kg of intravenous dose among the total 6 mice tested; type: functional
B16 [29] = assay: Antitumor activity of 17.8 mg/kg of perorally administered compound against B16 melanoma BL6 cells implanted into mice, value reported is percent compared to control; type: functional, Mus musculus; details: route oral
Mus musculus [30] = assay: Maximum rate of body weight loss after intravenous administration of 7.8 mg/kg of compound in mice; type: functional
Mus musculus [31] = assay: Number of mice died at 26.7 mg/kg of peroral dose of compound among the total 6 mice tested; type: functional; details: route oral
Mus musculus [32] = assay: Number of mice died at 7.8 mg/kg of intravenous dose of compound among the total 6 mice tested; type: functional
Mus musculus [33] = assay: Effective dose of intravenously administered compound against B16 melanoma BL6 cells implanted into mice; range is 7.8-11.9; type: functional; details: B16, iv
Mus musculus [34] = assay: Maximum rate of body weight loss after peroral administration of 7.9 mg/kg of compound in mice; <0 indicates no weight loss; type: functional; details: route oral
Mus musculus [35] = assay: Effective dose of perorally administered compound against B16 melanoma BL6 cells implanted into mice; range is 11.9-17.8; type: functional; details: B16, po
Mus musculus [36] = assay: Antitumor activity of 7.8 mg/kg of intravenously administered compound against B16 melanoma BL6 cells implanted into mice, value reported is percent compared to control; type: functional; details: route intravenous
Mus musculus [37] = assay: Maximum rate of body weight loss after intravenous administration of 5.3 mg/kg of compound in mice; <0 indicates no weight loss; type: functional

Structure (SMILES) | GI50 (P388) [ng/mL] | GI50 (PC-6 [2]) [ng/mL] | GI50 (PC-12) [ng/mL] | GI50 (PC-6 [4]) [ng/mL] | GI50 (PC-6 [5]) [µg/mL] | BWLmax (Mus musculus [6]) [%] | BWLmax (Mus musculus [7]) [%] | IR (Mus musculus [9]) [%] | Mortality (Mus musculus [12]) | Mortality (Mus musculus [15]) | Mortality (Mus musculus [16]) | Mortality (Mus musculus [17]) | IR (B16 [18]) [%] | IR (B16 [21]) [%] | IR (Mus musculus [22]) [%] | BWLmax (Mus musculus [23]) [%] | Mortality (Mus musculus [24]) | Mortality (Mus musculus [28]) | IR (B16 [29]) [%] | also measured
CC(=O)O[C@@]12CO[C@@H]1CC[C@@]1(C)[C@@H]3O[C@H](CN(C)C)O[C@@H]3C3=C(C)[C@@H](OC(=O)[C@H](O)[C@@H](NC(=O)OC(C)(C)C)c4nccs4)C[C@@](O)([C@@H](OCc4ccccc4)[C@@H]12)C3(C)C | 0.25 (≈ 0.292 nM) | 0.27 (≈ 0.315 nM) | 0.35 (≈ 0.409 nM) | 2.81 (≈ 3.28 nM) | 0.0391 (≈ 45.7 nM) | – | – | – | – | – | – | – | – | – | – | – | – | – | – | ED50 (Mus musculus [1]): 17.8 mg/kg; ED50 (B16 [3]): 11.9 mg/kg
CC(=O)O[C@@]12CO[C@@H]1CC[C@@]1(C)[C@@H]3O[C@H](CN(C)C)O[C@@H]3C3=C(C)[C@@H](OC(=O)[C@H](O)[C@@H](NC(=O)OC(C)(C)C)c4cccc(F)n4)C[C@@](O)([C@@H](OCc4ccccc4)[C@@H]12)C3(C)C | 0.67 (≈ 0.772 nM) | 0.38 (≈ 0.438 nM) | 0.62 (≈ 0.714 nM) | 2.58 (≈ 2.97 nM) | 0.0213 (≈ 24.5 nM) | 13.9 | 12.9 | 67.6 | 0 | 0 | 0 | 5 | 95.6 | 97.4 | 91.5 | 12 | 0 | 6 | 94.8 | ED50 (Mus musculus [8]): 11.9 mg/kg; BWLmax (Mus musculus [10]): 3.8%; Mortality (Mus musculus [11]): 0; IR (Mus musculus [13]): 91.5%; BWLmax (Mus musculus [14]): 2%; BWLmax (Mus musculus [19]): 2.9%; Mortality (Mus musculus [20]): 0; BWLmax (Mus musculus [25]): <0%; IR (Mus musculus [26]): 42.4%; ED50 (Mus musculus [27]): 11 mg/kg
CC(=O)O[C@@]12CO[C@@H]1CC[C@@]1(C)[C@@H]3O[C@H](CN4CCOCC4)O[C@@H]3C3=C(C)[C@@H](OC(=O)[C@H](O)[C@@H](NC(=O)OC(C)(C)C)C(C)(C)C)C[C@@](O)([C@@H](OCc4ccccc4)[C@@H]12)C3(C)C | 0.34 (≈ 0.39 nM) | 0.7 (≈ 0.804 nM) | 0.13 (≈ 0.149 nM) | 0.85 (≈ 0.976 nM) | 0.00556 (≈ 6.38 nM) | 11.7 | 0.4 | 28.6 | 0 | 0 | 0 | 0 | 93.8 | 63.4 | 25.5 | 10.5 | 0 | 6 | 90.3 | BWLmax (Mus musculus [30]): <1.2%; Mortality (Mus musculus [31]): 6; Mortality (Mus musculus [32]): 0; ED50 (Mus musculus [33]): 11.9 mg/kg; BWLmax (Mus musculus [34]): <0%; ED50 (Mus musculus [35]): 17.8 mg/kg; IR (Mus musculus [36]): 71.9%; BWLmax (Mus musculus [37]): <0%
